Reference: the NIST ThermoML archive (doi:10.1021/je700260f)
“And” between values parts separate entries of the source, which are not always exact repeats. Equal entries are not always repeated. Numbers after ± are expanded uncertainties.

Conditions: Liquid, Vibrating tube method

FC(C(F)(F)F)C(F)(F)F [1,1,1,2,3,3,3-heptafluoropropane]
Conditions | mass density
323.15 K, 30843 kPa | 1467.7 ± 1.7 kg/m3
323.15 K, 30885 kPa | 1467.8 ± 1.7 kg/m3
323.15 K, 32658 kPa | 1474.5 ± 1.7 kg/m3
323.15 K, 32686 kPa | 1474.5 ± 1.7 kg/m3
323.15 K, 34384 kPa | 1480.6 ± 1.7 kg/m3
323.15 K, 34387 kPa | 1480.4 ± 1.7 kg/m3 and 1480.6 ± 1.7 kg/m3
323.16 K, 14143 kPa | 1389.6 ± 1.5 kg/m3
323.16 K, 14163 kPa | 1389.5 ± 1.5 kg/m3
323.16 K, 14186 kPa | 1389.6 ± 1.5 kg/m3
323.16 K, 14200 kPa | 1389.8 ± 1.5 kg/m3
323.16 K, 14366 kPa | 1390.8 ± 1.6 kg/m3
323.16 K, 14386 kPa | 1390.8 ± 1.6 kg/m3
323.16 K, 14409 kPa | 1390.9 ± 1.6 kg/m3
323.16 K, 14427 kPa | 1391.1 ± 1.6 kg/m3
323.16 K, 14450 kPa | 1391.3 ± 1.6 kg/m3
323.16 K, 14470 kPa | 1391.5 ± 1.6 kg/m3
323.16 K, 14492 kPa | 1391.6 ± 1.6 kg/m3
323.16 K, 14509 kPa | 1391.5 ± 1.6 kg/m3
323.16 K, 16696 kPa | 1404.2 ± 1.6 kg/m3
323.16 K, 16719 kPa | 1404.2 ± 1.6 kg/m3
323.16 K, 16735 kPa | 1404.5 ± 1.6 kg/m3
323.16 K, 16783 kPa | 1404.5 ± 1.6 kg/m3
323.16 K, 29984 kPa | 1464.4 ± 1.7 kg/m3
323.16 K, 30010 kPa | 1464.6 ± 1.7 kg/m3
323.16 K, 30040 kPa | 1464.7 ± 1.7 kg/m3
323.16 K, 30071 kPa | 1464.8 ± 1.7 kg/m3
323.16 K, 30102 kPa | 1464.9 ± 1.7 kg/m3
323.16 K, 30132 kPa | 1465 ± 1.7 kg/m3
323.16 K, 30163 kPa | 1465.1 ± 1.7 kg/m3
323.16 K, 30194 kPa | 1465.2 ± 1.7 kg/m3
323.16 K, 30221 kPa | 1465.4 ± 1.7 kg/m3
323.16 K, 30252 kPa | 1465.5 ± 1.7 kg/m3
323.16 K, 30280 kPa | 1465.6 ± 1.7 kg/m3
323.16 K, 30311 kPa | 1465.6 ± 1.7 kg/m3
323.16 K, 30340 kPa | 1465.8 ± 1.7 kg/m3
323.16 K, 30380 kPa | 1466 ± 1.7 kg/m3
323.16 K, 30414 kPa | 1466.1 ± 1.7 kg/m3
323.16 K, 30444 kPa | 1466.3 ± 1.7 kg/m3
323.16 K, 30470 kPa | 1466.4 ± 1.7 kg/m3
323.16 K, 30505 kPa | 1466.5 ± 1.7 kg/m3
323.16 K, 30532 kPa | 1466.6 ± 1.7 kg/m3
323.16 K, 30554 kPa | 1466.6 ± 1.7 kg/m3
323.16 K, 30581 kPa | 1466.8 ± 1.7 kg/m3
333.13 K, 1640 kPa | 1225.8 ± 1.5 kg/m3
333.13 K, 1661 kPa | 1226.3 ± 1.5 kg/m3
333.13 K, 1691 kPa | 1226.6 ± 1.5 kg/m3
333.13 K, 1709 kPa | 1227.1 ± 1.5 kg/m3
333.13 K, 1736 kPa | 1227.6 ± 1.5 kg/m3
333.13 K, 1764 kPa | 1228 ± 1.5 kg/m3
333.13 K, 1789 kPa | 1228.4 ± 1.5 kg/m3
333.13 K, 1815 kPa | 1229 ± 1.5 kg/m3
